Measurements taken from ChEMBL document CHEMBL1201862, “PubChem BioAssay data set” (2004).
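Briefly, cells in 96-well plates were exposed to five compound concentrations for 48 h, and endpoints were estimated by linear interpolation. Abbreviation: GI50, concentration required for 50% inhibition of growth.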 Active and inactive are the calls of the source. Rule as the data show it: active = GI50 up to about 1.1 µM and inactive = higher.

Columns and labels:
Test in all cases: DTP human tumour cell line panel, 48 h
DU-145 = test system: DU-145
NCI/ADR-RES = test system: NCI/ADR-RES
UO-31 = test system: UO-31
MDA-MB-435 = test system: MDA-MB-435
HL-60 = test system: HL-60
U-251 = test system: U-251
K562 = test system: K562
SK-MEL-2 = test system: SK-MEL-2
OVCAR-3 = test system: OVCAR-3
HCC 2998 = test system: HCC 2998
A549 = test system: A549
IGROV-1 = test system: IGROV-1
UACC-257 = test system: UACC-257
CAKI-1 = test system: CAKI-1
Hs-578T = test system: Hs-578T
OVCAR-4 = test system: OVCAR-4
MDA-MB-231 = test system: MDA-MB-231
T47D = test system: T47D
HCT-116 = test system: HCT-116
COLO 205 = test system: COLO 205
HT-29 = test system: HT-29
SN12C = test system: SN12C
OVCAR-8 = test system: OVCAR-8
SF-295 = test system: SF-295
KM12 = test system: KM12
OVCAR-5 = test system: OVCAR-5
BT-549 = test system: BT-549
SF-268 = test system: SF-268
RPMI-8226 = test system: RPMI-8226
MCF7 = test system: MCF7
PC-3 = test system: PC-3
SNB-19 = test system: SNB-19
786-0 = test system: 786-0
NCI-H460 = test system: NCI-H460
EKVX = test system: EKVX
MOLT-4 = test system: MOLT-4
RXF 393 = test system: RXF 393
M14 = test system: M14
HOP-92 = test system: HOP-92
MDA-N = test system: MDA-N
HCT-15 = test system: HCT-15
ACHN = test system: ACHN
UACC-62 = test system: UACC-62
HOP-62 = test system: HOP-62
SK-MEL-5 = test system: SK-MEL-5
NCI-H23 = test system: NCI-H23
TK-10 = test system: TK-10
SK-MEL-28 = test system: SK-MEL-28
SF-539 = test system: SF-539
SW-620 = test system: SW-620
SK-OV-3 = test system: SK-OV-3
NCI-H226 = test system: NCI-H226
NCI-H522 = test system: NCI-H522
LOX IMVI = test system: LOX IMVI
A498 = test system: A498
CCRF-CEM = test system: CCRF-CEM
SNB-75 = test system: SNB-75
Malme-3M = test system: Malme-3M

Measured: GI50

Cc1nc(C)c(C(=O)NNC(N)=S)cc1C(=O)NNC(N)=S
> 100 µM: HCT-15
inactive: DU-145 > 100 µM | NCI/ADR-RES > 100 µM | UO-31 > 100 µM | MDA-MB-435 > 100 µM | HL-60 > 100 µM | U-251 > 100 µM | K562 > 100 µM | SK-MEL-2 > 100 µM | OVCAR-3 > 100 µM | HCC 2998 > 100 µM | A549 > 100 µM | IGROV-1 > 100 µM | UACC-257 > 100 µM | CAKI-1 > 100 µM | Hs-578T > 100 µM | OVCAR-4 > 100 µM | MDA-MB-231 > 100 µM | T47D > 100 µM | HCT-116 > 100 µM | COLO 205 > 100 µM | HT-29 > 100 µM | SN12C > 100 µM | OVCAR-8 > 100 µM | SF-295 > 100 µM | KM12 > 100 µM | OVCAR-5 > 100 µM | BT-549 > 100 µM | SF-268 > 100 µM | RPMI-8226 > 100 µM | MCF7 > 100 µM | PC-3 > 100 µM | SNB-19 > 100 µM | 786-0 > 100 µM | NCI-H460 > 100 µM | EKVX > 100 µM | MOLT-4 > 100 µM | RXF 393 > 100 µM | M14 > 100 µM | HOP-92 > 100 µM | MDA-N > 100 µM | ACHN > 100 µM | UACC-62 > 100 µM | HOP-62 > 100 µM | SK-MEL-5 > 100 µM | NCI-H23 > 100 µM | TK-10 > 100 µM | SK-MEL-28 > 100 µM | SF-539 > 100 µM | SW-620 > 100 µM | SK-OV-3 > 100 µM | NCI-H226 > 100 µM | NCI-H522 > 100 µM | LOX IMVI > 100 µM

O=C(/C=C/c1ccc(O)cc1)c1cc(O)cc(O)c1
inactive: DU-145 12.7 µM | NCI/ADR-RES 18.9 µM | UO-31 10 µM | MDA-MB-435 14.2 µM | HL-60 1.92 µM | U-251 14.5 µM | K562 2.68 µM | SK-MEL-2 18.1 µM | OVCAR-3 15.3 µM | A549 16.5 µM | IGROV-1 13.7 µM | UACC-257 16.3 µM | CAKI-1 14.4 µM | Hs-578T 29.9 µM | OVCAR-4 20.6 µM | A498 14.9 µM | MDA-MB-231 15.5 µM | T47D 14.6 µM | HCT-116 13.2 µM | COLO 205 18 µM | HT-29 17.5 µM | SN12C 15.2 µM | OVCAR-8 13.4 µM | SF-295 15.7 µM | OVCAR-5 13.8 µM | BT-549 14.3 µM | SF-268 19.8 µM | RPMI-8226 2.16 µM | MCF7 3.54 µM | PC-3 11.1 µM | SNB-19 16.7 µM | 786-0 16.6 µM | EKVX 17.3 µM | MOLT-4 16.3 µM | RXF 393 15.8 µM | M14 15.7 µM | HOP-92 14.3 µM | MDA-N 11.9 µM | ACHN 6.79 µM | UACC-62 10.4 µM | HOP-62 15.6 µM | SK-MEL-5 15.5 µM | CCRF-CEM 3.36 µM | NCI-H23 20.5 µM | SNB-75 17.6 µM | TK-10 24.4 µM | SK-MEL-28 21.2 µM | SF-539 13.5 µM | SK-OV-3 18.2 µM | NCI-H226 24.1 µM | NCI-H522 3.95 µM | LOX IMVI 4.32 µM | Malme-3M 20.4 µM
5.4 µM: HCT-15

CCCCCCCc1ccc(-c2nnc(/N=N/c3ccc(OCCCCC)cc3)s2)s1
> 100 µM: HCT-15
inactive: DU-145 > 100 µM | NCI/ADR-RES > 100 µM | UO-31 > 100 µM | MDA-MB-435 > 100 µM | HL-60 > 100 µM | U-251 > 100 µM | SK-MEL-2 > 100 µM | OVCAR-3 > 100 µM | HCC 2998 > 100 µM | A549 > 100 µM | IGROV-1 79.1 µM | UACC-257 > 100 µM | CAKI-1 > 100 µM | Hs-578T > 100 µM | OVCAR-4 > 100 µM | A498 > 100 µM | MDA-MB-231 > 100 µM | T47D > 100 µM | HCT-116 > 100 µM | COLO 205 > 100 µM | HT-29 > 100 µM | SN12C > 100 µM | SF-295 > 100 µM | KM12 > 100 µM | OVCAR-5 > 100 µM | BT-549 > 100 µM | SF-268 > 100 µM | RPMI-8226 > 100 µM | MCF7 > 100 µM | PC-3 > 100 µM | SNB-19 > 100 µM | 786-0 > 100 µM | NCI-H460 > 100 µM | EKVX > 100 µM | MOLT-4 > 100 µM | RXF 393 > 100 µM | M14 > 100 µM | MDA-N > 100 µM | ACHN > 100 µM | UACC-62 > 100 µM | HOP-62 > 100 µM | SK-MEL-5 > 100 µM | CCRF-CEM > 100 µM | NCI-H23 > 100 µM | SNB-75 > 100 µM | TK-10 > 100 µM | SK-MEL-28 > 100 µM | SF-539 > 100 µM | SW-620 > 100 µM | SK-OV-3 > 100 µM | NCI-H226 > 100 µM | NCI-H522 > 100 µM | Malme-3M > 100 µM
